{"source": "patent US9963433B2", "about": "“Anticancer drugs including the chemical structures of an androgen receptor ligand and a histone deacetylase inhibitor” (Wayne State University, priority 2016, dated 2018)", "key": {"Hsp90": {"test_system": "Hsp90", "assay": "Western blot of Hsp90 protein in C4-2 cells", "conditions": "1 μM to 10 μM, 24 h, relative to GAPDH, FIG. 4B", "experimental": "(§1) Cells were then harvested for western blot analysis using antibody to AR (4A), HSP90 (4B), Acetyl-Lysine (4C) or GAPDH (loading control). ImageJ software was used to determine the intensities of the bands relative to the vehicle control for each protein. The values were then divided by the values for GAPDH within the same samples.\n(§2) Western Blot Analysis. Cells were washed once with phosphate buffered saline (PBS) and then lysed with RIPA buffer (150 mM NaCl, 1% Nonidet P-40, 0.5% sodium deoxycholate, 0.1% SDS, 50 mM Tris of pH 8.0) containing a protease inhibitor cocktail (Pierce, Thermo Fisher Scientific). The cell lysates were then incubated on ice for 40 minutes. Total protein concentrations were estimated using the Bradford Assay (Bio-Rad). Protein samples (10-40 ug) were heated at 95° C. for 5 minutes and resolved by electrophoresis on 8% polyacrylamide-SDS gels and electrophoretically transferred to PVDF membranes (Millipore, Billerica, Mass.). The membranes were then probed overnight at 4° C. with the appropriate primary antibody followed by the appropriate horseradish peroxidase-conjugated secondary antibody."}, "[1]": {"test_system": "AR chromatin association at KLK3 ARE enhancer elements", "assay": "ChIP of AR at KLK3 enhancer in C4-2 cells", "conditions": "compound 10 μM, R1881 1 nM or 10 nM, 2 h, FIG. 3C", "experimental": "(3C) C4-2 cells plated in hormone-depleted medium were treated with either vehicle, R1881, or the indicated compound for 2 h. Cells were harvested and subjected to ChIP using AR antibody. Taqman probes targeting ARE enhancer elements associated with the KLK3 gene were used to quantify the immunoprecipitated chromatin.\nChromatin Immunoprecipitation (ChIP). […] The ChIP signals were measured by quantitative real time PCR analysis of the immunoprecipitated products.\nAs a target site for the ChIP assay, the well-established AR binding enhancer elements located 4 kb upstream of the transcription initiation site of the KLK3 gene was chosen."}, "AR": {"biological_target": "T1, AR (Homo sapiens, UniProt P10275, T878A)", "T1 construct": "endogenous in cells; host or cells: C4-2 cells", "T1 sequence (P10275 1-920 T878A)": "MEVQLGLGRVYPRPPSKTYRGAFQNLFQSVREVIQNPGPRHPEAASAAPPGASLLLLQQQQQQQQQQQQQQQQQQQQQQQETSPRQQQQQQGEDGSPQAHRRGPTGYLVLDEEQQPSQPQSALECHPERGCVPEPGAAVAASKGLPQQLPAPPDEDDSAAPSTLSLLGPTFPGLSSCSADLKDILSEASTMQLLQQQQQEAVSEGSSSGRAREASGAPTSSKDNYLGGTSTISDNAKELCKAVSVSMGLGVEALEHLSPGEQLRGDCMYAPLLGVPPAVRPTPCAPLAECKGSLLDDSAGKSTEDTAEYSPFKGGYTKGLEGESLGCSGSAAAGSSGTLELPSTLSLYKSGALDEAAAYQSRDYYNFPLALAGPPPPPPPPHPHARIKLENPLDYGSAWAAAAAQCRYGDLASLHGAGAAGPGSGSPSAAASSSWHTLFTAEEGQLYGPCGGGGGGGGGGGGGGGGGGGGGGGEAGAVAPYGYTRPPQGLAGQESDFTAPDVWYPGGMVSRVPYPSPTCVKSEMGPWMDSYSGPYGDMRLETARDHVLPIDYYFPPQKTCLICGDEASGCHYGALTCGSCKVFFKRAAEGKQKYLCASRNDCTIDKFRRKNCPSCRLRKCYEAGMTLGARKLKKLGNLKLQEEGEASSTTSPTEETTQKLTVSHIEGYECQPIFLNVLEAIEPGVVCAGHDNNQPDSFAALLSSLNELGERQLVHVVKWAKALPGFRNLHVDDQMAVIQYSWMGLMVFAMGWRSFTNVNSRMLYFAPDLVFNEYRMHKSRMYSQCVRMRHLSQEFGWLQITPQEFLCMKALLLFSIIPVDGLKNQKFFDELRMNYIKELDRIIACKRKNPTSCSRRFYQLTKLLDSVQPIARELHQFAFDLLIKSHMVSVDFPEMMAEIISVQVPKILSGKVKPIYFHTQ", "assay": "Western blot of AR protein in C4-2 cells", "type": "cell-based", "conditions": "1 μM to 10 μM, 24 h, relative to GAPDH, FIG. 4A", "experimental": "as §1, §2"}}}
{"smiles": "CNC(=O)c1ccc(N2C(=S)N(c3ccc(C#N)c(C(F)(F)F)c3)C(=O)C2(C)C)cc1F", "note": "[Enz, Enzalutamide, reference compound]", "values": [{"measurement": "Hsp90 protein level (degradation)", "setting": "Hsp90", "value": "had no effect"}, {"measurement": "chromatin association of AR (ChIP signal)", "setting": "[1]", "value": "basal ChIP signal"}]}
{"smiles": "CC1(C)C(=O)N(c2ccc(C#N)c(C(F)(F)F)c2)C(=S)N1c1ccc(C(=O)NCCCCCCC(=O)NO)c(F)c1", "note": "[Compound 2-75, 4-(3-(4-cyano-3-(trifluoromethyl)phenyl)-5,5-dimethyl-4-oxo-2-thioxoimidazolidin-1-yl)-2-fluoro-N-(7-(hydroxyamino)-7-oxoheptyl)benzamide]", "values": [{"measurement": "Hsp90 protein level (degradation)", "setting": "Hsp90", "value": "more marked reduction in Hsp90"}, {"measurement": "AR protein level (degradation)", "setting": "AR", "value": "more efficiently induced AR protein degradation"}, {"measurement": "chromatin association of AR (ChIP signal)", "setting": "[1]", "value": "basal ChIP signal"}]}
{"smiles": "CC1(C)C(=O)N(c2ccc(C#N)c(C(F)(F)F)c2)C(=S)N1c1ccc(/C=C/C(=O)NO)c(F)c1", "note": "[Compound 1005, (E)-3-(4-(3-(4-cyano-3-(trifluoromethyl)phenyl)-5,5-dimethyl-4-oxo-2-thioxoimidazolidin-1-yl)-2-fluorophenyl)-N-hydroxyacrylamide]", "values": [{"measurement": "Hsp90 protein level (degradation)", "setting": "Hsp90", "value": "more marked reduction in Hsp90"}, {"measurement": "AR protein level (degradation)", "setting": "AR", "value": "more efficiently induced AR protein degradation"}]}
